Experiment [1] is described as follows: Luminescence Cell-Based Dose Retest to Confirm Inhibitors of Cancer Stem Cells. [Related pubchem assays (depositor defined):AID2717, AID2721]. The class given is functional. To be noted: Homo sapiens.
The target of experiment [2] is T1, Replicative DNA helicase DnaB (Mycobacterium tuberculosis, UniProt P9WMR3).
T1 sequence (P9WMR3 whole entry): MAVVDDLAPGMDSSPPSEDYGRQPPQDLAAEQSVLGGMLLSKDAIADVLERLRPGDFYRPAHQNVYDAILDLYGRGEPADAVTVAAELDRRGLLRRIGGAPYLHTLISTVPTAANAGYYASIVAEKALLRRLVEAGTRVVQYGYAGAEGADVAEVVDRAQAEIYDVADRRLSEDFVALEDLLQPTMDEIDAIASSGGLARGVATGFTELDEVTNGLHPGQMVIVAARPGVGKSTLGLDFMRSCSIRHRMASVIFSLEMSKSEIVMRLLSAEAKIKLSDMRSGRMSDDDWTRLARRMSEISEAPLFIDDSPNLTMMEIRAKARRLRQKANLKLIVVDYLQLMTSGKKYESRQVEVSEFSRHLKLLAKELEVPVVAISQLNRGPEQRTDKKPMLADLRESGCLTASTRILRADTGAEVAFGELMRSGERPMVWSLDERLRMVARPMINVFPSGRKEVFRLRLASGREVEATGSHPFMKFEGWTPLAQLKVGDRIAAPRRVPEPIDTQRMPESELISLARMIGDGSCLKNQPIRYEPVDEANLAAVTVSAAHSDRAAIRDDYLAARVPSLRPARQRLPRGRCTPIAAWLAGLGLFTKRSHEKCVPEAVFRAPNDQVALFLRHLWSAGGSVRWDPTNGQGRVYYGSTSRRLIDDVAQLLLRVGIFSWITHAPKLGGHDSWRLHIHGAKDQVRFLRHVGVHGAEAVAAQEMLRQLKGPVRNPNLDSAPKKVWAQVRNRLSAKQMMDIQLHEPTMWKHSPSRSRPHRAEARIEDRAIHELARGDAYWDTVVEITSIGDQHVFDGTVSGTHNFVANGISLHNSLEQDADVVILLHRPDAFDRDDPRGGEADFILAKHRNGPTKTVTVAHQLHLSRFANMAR
The experiment is described as follows: DnaB intein splicing inhibitors, dose response, biochemical, cell-free fluorescence (AID 449749). The class given is functional.

The next experiment has as its target T2, Protein RecA (Mycobacterium tuberculosis, UniProt P9WHJ3).
T2 sequence (P9WHJ3 whole entry): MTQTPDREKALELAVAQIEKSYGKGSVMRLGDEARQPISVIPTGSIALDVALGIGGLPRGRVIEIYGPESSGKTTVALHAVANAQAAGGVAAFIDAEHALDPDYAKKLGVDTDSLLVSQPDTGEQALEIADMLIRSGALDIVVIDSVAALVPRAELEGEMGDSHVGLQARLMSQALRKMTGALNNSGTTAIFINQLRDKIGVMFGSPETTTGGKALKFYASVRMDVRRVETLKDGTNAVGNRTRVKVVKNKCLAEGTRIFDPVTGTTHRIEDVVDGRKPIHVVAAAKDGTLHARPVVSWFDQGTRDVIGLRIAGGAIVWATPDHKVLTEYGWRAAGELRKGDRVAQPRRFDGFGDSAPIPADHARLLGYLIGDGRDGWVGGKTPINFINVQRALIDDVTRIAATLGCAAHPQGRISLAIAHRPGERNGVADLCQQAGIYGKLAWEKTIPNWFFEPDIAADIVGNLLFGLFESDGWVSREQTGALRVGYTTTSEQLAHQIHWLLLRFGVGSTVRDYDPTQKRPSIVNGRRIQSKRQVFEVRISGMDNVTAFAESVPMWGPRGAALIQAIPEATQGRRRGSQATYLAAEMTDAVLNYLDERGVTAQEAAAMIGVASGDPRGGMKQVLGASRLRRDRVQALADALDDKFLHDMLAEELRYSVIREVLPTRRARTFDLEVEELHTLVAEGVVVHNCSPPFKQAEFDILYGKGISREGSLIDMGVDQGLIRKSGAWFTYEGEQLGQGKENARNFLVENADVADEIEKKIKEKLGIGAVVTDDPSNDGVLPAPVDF
The experiment can be described thus: Fluorescence Cell-Free Homogeneous Dose Retest to Identify Inhibitors of RecA-Intein Splicing Activity. [Related pubchem assays (depositor defined):AID2097, AID2223, AID489010, AID492950]. The class given is functional.

Another experiment deals with Cytochrome P450 3A4 (Homo sapiens, UniProt P08684).
The target in a further experiment is T3, Cytochrome P450 1A2 (Homo sapiens, UniProt P05177).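 Also: PubChem cytochrome P450 panel assay, CYP1A2 panel member.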
T3 sequence (P05177 whole entry): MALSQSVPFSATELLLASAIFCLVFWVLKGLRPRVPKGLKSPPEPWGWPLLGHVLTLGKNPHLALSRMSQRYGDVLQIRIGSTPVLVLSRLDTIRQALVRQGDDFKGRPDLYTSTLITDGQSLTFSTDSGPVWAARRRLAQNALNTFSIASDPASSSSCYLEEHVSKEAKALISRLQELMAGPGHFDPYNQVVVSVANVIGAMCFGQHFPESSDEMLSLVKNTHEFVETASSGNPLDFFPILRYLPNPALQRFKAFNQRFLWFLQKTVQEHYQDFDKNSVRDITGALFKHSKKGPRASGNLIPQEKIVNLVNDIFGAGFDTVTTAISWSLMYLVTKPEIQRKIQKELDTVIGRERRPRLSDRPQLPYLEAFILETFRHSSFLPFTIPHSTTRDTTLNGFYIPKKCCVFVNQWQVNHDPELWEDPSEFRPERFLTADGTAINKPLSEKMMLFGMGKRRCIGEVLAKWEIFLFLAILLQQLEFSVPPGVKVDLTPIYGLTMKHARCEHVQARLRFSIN

A further experiment concerns the target Cytochrome P450 2C19 (Homo sapiens, UniProt P33261). The experiment is described as follows: Cytochrome panel assay with activity outcomes. Panel member name: p450-cyp2c19 Compounds with AC50 equal or less than 10 uM are considered active. The class given is functional. Conditions: read-out: AC50.
For another experiment, the target named is Cytochrome P450 2C9 (Homo sapiens, UniProt P11712).
The target of experiment [3] is T4, Rac GTPase-activating protein 1 (Homo sapiens, UniProt Q9H0H5).
T4 sequence (Q9H0H5 whole entry): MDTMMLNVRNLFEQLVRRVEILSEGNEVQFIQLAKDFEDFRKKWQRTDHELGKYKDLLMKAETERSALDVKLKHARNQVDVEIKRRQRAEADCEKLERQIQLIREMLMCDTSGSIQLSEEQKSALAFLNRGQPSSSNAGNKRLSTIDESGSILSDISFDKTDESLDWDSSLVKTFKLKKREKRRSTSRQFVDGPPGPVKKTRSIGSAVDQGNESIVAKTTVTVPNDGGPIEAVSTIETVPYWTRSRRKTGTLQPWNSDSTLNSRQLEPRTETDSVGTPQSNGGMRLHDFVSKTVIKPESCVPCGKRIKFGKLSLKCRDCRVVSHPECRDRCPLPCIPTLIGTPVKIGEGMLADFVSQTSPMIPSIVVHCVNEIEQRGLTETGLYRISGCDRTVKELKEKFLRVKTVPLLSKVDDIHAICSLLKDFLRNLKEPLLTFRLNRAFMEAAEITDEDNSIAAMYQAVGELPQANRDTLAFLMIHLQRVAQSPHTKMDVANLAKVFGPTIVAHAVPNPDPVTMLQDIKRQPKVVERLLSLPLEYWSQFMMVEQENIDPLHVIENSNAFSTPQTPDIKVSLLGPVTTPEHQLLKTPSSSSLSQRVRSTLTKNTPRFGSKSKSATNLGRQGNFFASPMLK
The experiment is described as follows: MgcRacGAP GTPase-activating activity inhibitors, confirmation, biochemical, ADP Hunter fluorescence, primary and confirmatory (AID 624330). The class given is functional.

The target in a further experiment is Cytochrome P450 2D6 (Homo sapiens, UniProt P10635).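 Also: CYP2D6 member of a cytochrome P450 panel assay.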

Values joined by “and” are separate entries in the source; they are usually repeats but may differ in a detail not shown here. Equal values may be shown once. Active and inactive are the calls of the source.

Chain of Cytochrome P450 3A4 (P08684 whole entry): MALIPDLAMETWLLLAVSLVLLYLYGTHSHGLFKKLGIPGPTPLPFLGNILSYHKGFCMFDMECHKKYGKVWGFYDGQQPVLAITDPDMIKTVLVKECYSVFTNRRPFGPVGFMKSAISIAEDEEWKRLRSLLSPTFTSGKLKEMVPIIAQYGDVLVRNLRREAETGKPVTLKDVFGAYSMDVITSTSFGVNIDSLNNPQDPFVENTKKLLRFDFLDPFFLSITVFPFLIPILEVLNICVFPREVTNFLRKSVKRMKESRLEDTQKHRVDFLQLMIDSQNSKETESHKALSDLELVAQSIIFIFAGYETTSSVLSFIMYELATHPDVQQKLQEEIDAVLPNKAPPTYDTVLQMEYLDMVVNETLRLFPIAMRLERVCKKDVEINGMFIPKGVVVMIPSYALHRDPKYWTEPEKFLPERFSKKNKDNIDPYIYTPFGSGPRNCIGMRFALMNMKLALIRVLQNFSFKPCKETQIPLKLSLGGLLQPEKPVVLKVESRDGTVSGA
Chain of Cytochrome P450 2C19 (P33261 whole entry): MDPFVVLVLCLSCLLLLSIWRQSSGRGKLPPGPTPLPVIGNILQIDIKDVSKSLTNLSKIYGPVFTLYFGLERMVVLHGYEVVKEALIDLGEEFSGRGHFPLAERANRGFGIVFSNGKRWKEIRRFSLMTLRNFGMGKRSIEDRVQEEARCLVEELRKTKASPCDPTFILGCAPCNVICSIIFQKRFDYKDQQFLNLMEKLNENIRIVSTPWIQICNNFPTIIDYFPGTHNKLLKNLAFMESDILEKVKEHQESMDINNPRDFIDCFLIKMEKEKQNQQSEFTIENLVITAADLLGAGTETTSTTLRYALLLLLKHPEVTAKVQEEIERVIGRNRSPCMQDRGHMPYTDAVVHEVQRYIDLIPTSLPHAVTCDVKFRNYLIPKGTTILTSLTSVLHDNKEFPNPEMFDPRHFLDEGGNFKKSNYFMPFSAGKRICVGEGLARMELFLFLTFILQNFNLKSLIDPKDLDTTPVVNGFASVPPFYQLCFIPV
Chain of Cytochrome P450 2C9 (P11712 whole entry): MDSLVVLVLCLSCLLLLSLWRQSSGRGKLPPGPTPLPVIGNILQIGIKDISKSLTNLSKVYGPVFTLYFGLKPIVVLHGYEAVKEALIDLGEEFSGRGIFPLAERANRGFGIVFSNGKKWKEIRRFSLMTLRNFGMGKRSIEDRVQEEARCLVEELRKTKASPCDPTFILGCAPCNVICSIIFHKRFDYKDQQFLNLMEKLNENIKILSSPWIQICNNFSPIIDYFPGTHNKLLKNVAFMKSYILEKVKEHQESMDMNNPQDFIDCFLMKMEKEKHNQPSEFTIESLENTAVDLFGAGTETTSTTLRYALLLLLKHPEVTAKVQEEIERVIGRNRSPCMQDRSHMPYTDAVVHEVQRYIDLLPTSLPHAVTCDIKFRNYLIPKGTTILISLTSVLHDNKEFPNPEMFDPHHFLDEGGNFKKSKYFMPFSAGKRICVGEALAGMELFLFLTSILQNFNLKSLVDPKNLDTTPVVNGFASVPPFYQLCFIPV
Chain of Cytochrome P450 2D6 (P10635 whole entry): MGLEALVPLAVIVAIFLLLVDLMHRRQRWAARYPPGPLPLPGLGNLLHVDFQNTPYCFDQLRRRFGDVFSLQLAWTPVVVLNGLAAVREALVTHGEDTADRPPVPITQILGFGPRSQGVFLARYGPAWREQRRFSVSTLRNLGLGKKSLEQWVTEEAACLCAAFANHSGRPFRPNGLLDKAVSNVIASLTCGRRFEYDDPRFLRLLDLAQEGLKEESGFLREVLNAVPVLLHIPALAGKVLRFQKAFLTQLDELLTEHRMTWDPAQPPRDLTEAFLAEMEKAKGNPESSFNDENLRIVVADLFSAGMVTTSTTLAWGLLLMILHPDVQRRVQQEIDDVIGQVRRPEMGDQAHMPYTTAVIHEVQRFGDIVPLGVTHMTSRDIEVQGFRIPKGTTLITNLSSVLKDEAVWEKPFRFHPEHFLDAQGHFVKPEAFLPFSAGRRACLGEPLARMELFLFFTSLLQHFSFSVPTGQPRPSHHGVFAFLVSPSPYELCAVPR

Turning to `CCCCCc1cc(=O)oc2c(C(CCN3CCCC(C)C3)c3ccc4c(c3)OCO4)c(OC)cc(OC)c12` (configuration not stated), the figures for the AC50 in experiment [1] and in experiment [2] were 6.14 µM (active) and 5.31 µM (active), respectively. Moreover, the EC50 (as a rule, the concentration that produces a half-maximal response) on Protein RecA is 11.6 µM (active).

In the case of `O=C(CNC(=O)c1ccco1)OC(C(=O)c1ccccc1)c1ccccc1` (configuration not stated), the AC50 – broadly, the concentration at which the activity in the assay is half-maximal – on Cytochrome P450 3A4 was 28.2 µM (inconclusive); at Cytochrome P450 1A2 it was 15.8 µM (inconclusive). For `CCCCCCN(CCCCCC)C(=O)Cc1c(-c2ccc(Cl)cc2)[nH]c2ccc(Cl)cc12`, the half-maximal activity concentration (AC50) on Cytochrome P450 2C19 is 10 µM (inconclusive); on Cytochrome P450 1A2 it was 31.6 µM (inconclusive). For the compound `COC(=O)[C@@]1(Cc2ccccc2)[C@H]2c3cc(C(=O)N(C)C)n(Cc4c(CO)ncc(C)c4O)c3C[C@H]2CN1C(=O)c1ccccc1`, the AC50 at Cytochrome P450 1A2 is 25.1 µM (inconclusive). Same read-out and setting: under `Cn1cccc1C(=O)N1CCC2(CC1)CCN(c1cccc(-c3ccccc3)c1)CC2` stands 20 µM (inconclusive). Consider `N#Cc1cccc(NC(=O)N2CCCC3(CCN(C(=O)c4cnccn4)CC3)C2)c1`, for which the AC50 on Cytochrome P450 3A4 was 15.8 µM (inconclusive); on Cytochrome P450 1A2, 20 µM (inconclusive).

`O=C(O)c1cccc(SSc2cccc(C(=O)O)c2)c1`: the half-maximal activity concentration (AC50) at Cytochrome P450 2C9 was 2 µM (inconclusive); at Cytochrome P450 1A2, 5.01 µM (inconclusive). For `CCCCCCc1c(O)noc1C[C@H](N)C(=O)O`, the AC50 on Cytochrome P450 1A2 is 25.1 µM (inconclusive) and 31.6 µM (inconclusive).

In the case of `CC(C)(C)c1ccc(NS(=O)(=O)c2ccc(N)cc2)cc1`, the AC50 is 1 µM (inconclusive) at Cytochrome P450 3A4 and 3.16 µM (inconclusive) on Cytochrome P450 1A2. For `O=c1cc(-c2ccc(O)cc2)oc2c([C@H]3O[C@@H](CO)[C@@H](O)[C@@H](O)[C@@H]3O)c(O)cc(O)c12`, the AC50 at Cytochrome P450 1A2 was 20 µM (inconclusive).

Take `CCc1n[nH]c2c1C(c1cccnc1)C(C#N)=C(N)O2` (configuration not stated): in [2], the AC50 is 24.4 µM (inconclusive). Further, the EC50 at Protein RecA was 11.5 µM (active). Consider `CC(C)n1c(N2CCN(C(=O)Nc3ccccc3)CC2)nc2ccccc21`, for which the AC50 was 22.4 µM (inconclusive) on Cytochrome P450 2C19 and 25.1 µM (inconclusive) on Cytochrome P450 1A2. Take `CCCc1n[nH]c2c1C(c1ccc(OC)c(Cn3nnc4ccccc43)c1)C(C#N)=C(N)O2` (configuration not stated): the concentration at half-maximal activity (AC50) in experiment [2] was 19.7 µM (active). In addition, at Protein RecA, the EC50 was 0.283 µM (active).

On to `N#C/C(=C/c1ccc2c(c1)OCO2)C(=O)Nc1ccc(O)cc1`, for which, in experiment [2], the AC50 is 19 µM (active). Moreover, the EC50 on Protein RecA is 3.64 µM (active). Further, the IC50 (usually the concentration needed to halve the response being measured) in [3] is 55.4 µM (active). `CCC(=O)[C@@H](c1ccccc1)c1ccccn1`: on Cytochrome P450 1A2, the AC50 is 5.01 µM (inconclusive). With `CC1=NN(Cc2ccccc2)C(=O)C1`, the AC50 in experiment [2] was 5.61 µM (active). Also, on Protein RecA, the EC50 is 1.88 µM (active). For the compound `O=C(O)c1cc([N+](=O)[O-])ccc1NCCCc1ccccc1` [5-NITRO-2-PHENYLPROPYLAMINOBENZOIC ACID [NPPB]], the AC50 at Cytochrome P450 1A2 is 39.8 µM (inconclusive). For `Cc1ccc(Nc2cc(C)nc3c(C)ccc([N+](=O)[O-])c23)cc1`, in experiment [2], the AC50 is > 120 µM (inactive). For the same compound, the concentration giving a half-maximal response (EC50) at Protein RecA was 2.34 µM (active).

Consider `Cc1sc2nc(SCc3nc(-c4cccs4)no3)n(-c3ccccc3)c(=O)c2c1C`, for which the results for the AC50 on Cytochrome P450 2C9 and on Cytochrome P450 1A2 were 0.501 µM (inconclusive) and 14.1 µM (inconclusive), respectively.

With `CCNc1ncc2nc(-c3ccc(OC)cc3)c(=O)n(Cc3cccc(OC)c3)c2n1`, the half-maximal activity concentration (AC50) is 25.1 µM (inconclusive) on Cytochrome P450 3A4 and 15.8 µM (inconclusive) at Cytochrome P450 1A2. Consider `Cc1cccc(CNc2ncncc2-c2ccc(C(=O)N(C)C)cc2)c1`, for which the concentration at half-maximal activity (AC50) at Cytochrome P450 2C19 is 31.6 µM (inconclusive); on Cytochrome P450 1A2, 15.8 µM (inconclusive). Regarding `CS(=O)(=O)c1ccc(C(=O)OCc2nnc(-c3ccc(Cl)cc3)o2)cc1[N+](=O)[O-]`, the AC50 in [2] is 2.2 µM (active). In addition, at Protein RecA, the concentration giving a half-maximal response (EC50) was 1.42 µM (active).

As for `Cc1cc(OCC(F)(F)C(F)(F)C(F)(F)C(F)(F)C(F)(F)C(F)F)nc(N)n1`, on Cytochrome P450 1A2, the AC50 was 28.2 µM (inconclusive). As for `COc1cc(NC(=O)c2cc(Cl)ccc2Cl)ccc1-c1cc2ccccc2oc1=O`, the half-maximal activity concentration (AC50) was 25.1 µM (inconclusive) on Cytochrome P450 2D6, 1 µM (inconclusive) on Cytochrome P450 3A4 and 12.6 µM (inconclusive) on Cytochrome P450 1A2. For `O=C(C1CCN(S(=O)(=O)c2cccc3nsnc23)CC1)N1CCn2c1nc1ccccc12`, the concentration at half-maximal activity (AC50) at Cytochrome P450 2D6 is 17.8 µM (inconclusive); at Cytochrome P450 2C9, 25.1 µM (inconclusive); at Cytochrome P450 1A2, 20 µM (inconclusive).

Values taken from ChEMBL document CHEMBL1201862, “PubChem BioAssay data set” (2004).
